Measured values from article PMC7948455, “Novel drug discovery platform for spinocerebellar ataxia, using fluorescence technology targeting β-III-spectrin” (The Journal of Biological Chemistry, 2020).
“Also recorded” adds a separate entry of the source.

Experiments:
ABD L253P = molecular target: T1, ABD L253P (Homo sapiens, UniProt O15020, L253P); assay: Sedimentation of ABD L253P without actin (aggregation); settings: for Effect on ABD pelleting without actin (aggregation): 10 μM Hit compound, n = 4
T1 construct: the β-III-spectrin (human) ABD residues 1 to 284; His-SUMO (cleaved yes); made in house; host or cells: E. coli BL21(DE3), vector pE-SUMOpro
Method: In addition to a reduction in cell viability, the primary and counter screen may be sensitive to compounds that promote ABD-L253P protein aggregation. […] Our assay measuring ABD-L253P cosedimentation with actin is not sensitive to ABD aggregation, as it is designed to work under conditions where ∼90% ABD-L253P cosediments with actin. Nevertheless, we repeated these measurements in the absence of actin.
(§1) F-actin and ABD binding assays were performed as previously described ([10]). In brief, binding assays used 1 μM ABD protein, 1 μM F-actin, and 1 to 50 μM compound (as indicated) or DMSO control for a total reaction volume of 60 μl in F-buffer containing 10 mM Tris, pH 7.5, 150 mM NaCl, 0.5 mM ATP, 2 mM MgCl2, and 1 mM DTT. Following 30 min incubation at room temperature (21 °C). F-actin was pelleted using centrifugation at 100,000g at 25 °C for 30 min. Unbound ABD in the supernatant was measured following SDS-PAGE and Coomassie blue staining in accord ([10]). In addition, control cosedimentations assays that lacked actin were performed to test if compounds cause ABD aggregation. F-actin and Lifeact-mCherry binding assays were undertaken with 2 μM Lifeact-mCherry, 30 μM F-actin, and 1 to 50 μM compound (as indicated) or DMSO control for a total reaction volume of 80 μl in F-buffer. For a no-actin binding control, an assay sample with no F-actin was also set up. Binding reactions were allowed to reach equilibrium at room temperature (21 °C) for 30 min, and then F-actin was pelleted by centrifugation at 100,000g at 25 °C for 30 min. The amount of unbound Lifeact-mCherry was sampled by loading 7 μl of spin supernatant on a low-volume black bottom 384-well plate (Greiner). Amount of mCherry was determined by acquiring fluorescence spectrum peak intensity at ∼600 nm using a spectral unmixing plate reader (Fluorescence Innovations, Inc) equipped with a 532 nm laser (Laserglow Technologies, Ontario, Canada) for excitation, 532 nm long-pass filter for emission, and PMT for emission detection. The fraction of Lifeact-mCherry bound to F-actin was determined by subtracting from one the fraction of supernatant fluorescence intensity relative to the no-actin control sample:(3) Lifeactboundfraction=1−Fcompound/DMSO/FNo−actin where Fcontrol/DMSO is the peak mCherry fluorescence of assay samples containing compound or DMSO control, and Fno-actin is the peak mCherry fluorescence of assay samples that contained no F-actin.

[1] = molecular target: T2, ABD-L253P binding to actin (Homo sapiens, UniProt O15020, L253P); assay: F-actin and ABD cosedimentation assay; settings: for Effect on ABD-L253P to actin cosedimentation: 10 μM Hit compound
T2 construct: the β-III-spectrin (human) ABD residues 1 to 284; His-SUMO (cleaved yes); made in house; host or cells: E. coli BL21(DE3), vector pE-SUMOpro; actin from rabbit psoas muscle tissue
Method: Actin was purified from acetone powder derived from the psoas muscle of New Zealand white rabbit (Oryctolagus cuniculus) ([46]). Filamentous (F)-actin was stored for up to 3 days on ice before use in binding assays. Within an hour of the binding assay, the F-actin was clarified at 100,000g at 4 °C for 10 min prior to setting up binding assays. The L253P β-III-spectrin ABD was expressed in E. coli BL21(DE3) (Novagen). The ABD was purified and the His-SUMO tag proteolytically removed, as previously described ([14]), except size-exclusion chromatography was not performed due to the high purity of the ABD protein. Lifeact-mCherry protein was similarly prepared. A Bradford assay was performed to determine clarified F-actin and ABD protein concentrations.
as §1

HEK293-6E cells = assay: Trypan blue cell viability assay; type: cell-based
Method: HEK293-6E cell viability was measured using trypan blue (0.03%) staining and a Countess Automated Cell counter (Invitrogen). Nontransfected HEK293-6E cells were spun at 100g for 5 min at 21 °C and resuspended in 10 ml of PBS. The centrifugation and resuspension were repeated twice more. Final cell concentration was 1 × 10^6 cells/ml. Cells were incubated with 2% DMSO or 3 to 50 μM compound (as indicated) for 3 h at room temperature (21 °C). After addition of 100 μl of 0.06% trypan blue solution in PBS, 10 μl was loaded on a slide and injected into the cell counter, and cell viability was measured.

[2] = 10 μM Hit compound, 3 h incubation

T2 sequence (O15020 1-284 L253P): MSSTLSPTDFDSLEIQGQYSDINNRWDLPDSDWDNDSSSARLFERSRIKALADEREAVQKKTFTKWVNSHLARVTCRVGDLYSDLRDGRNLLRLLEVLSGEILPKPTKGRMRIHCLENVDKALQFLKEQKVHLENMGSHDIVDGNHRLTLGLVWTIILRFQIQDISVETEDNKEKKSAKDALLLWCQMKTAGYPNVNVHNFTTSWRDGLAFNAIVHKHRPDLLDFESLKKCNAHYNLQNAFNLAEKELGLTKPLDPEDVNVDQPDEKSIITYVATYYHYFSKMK
T1 sequence (O15020 1-284 L253P): as above

SMILES | Effect on ABD pelleting without actin (aggregation) (ABD L253P) | Effect on ABD-L253P to actin cosedimentation [1] | Effect on HEK293-6E cell viability (HEK293-6E cells; [2]) | Effect on ABD sedimentation without actin (ABD L253P; 1.6 μM swinholide A) | Effect on ABD-L253P cosedimentation with actin ([1]; 3 μM swinholide A, 50 μM tegaserod, n = 4) | Effect on HEK293-6E cell viability (HEK293-6E cells; 3 μM swinholide A, 50 μM tegaserod, 3 h)
O=C(O)c1cc([N+](=O)[O-])ccc1NCCCc1ccccc1 [NPPB] | do not significantly alter | do not significantly alter | do not significantly alter |  |  | 
CC(C)(C)c1ccc(/C=C/C(=O)Nc2ccc3c(c2)OCCO3)cc1 [AMG 9810] | do not significantly alter | do not significantly alter | do not significantly alter |  |  | 
CCCCCCCC/C=C\CCCCCCCC(=O)NCc1ccc(O)c(OC)c1 [olvanil] | do not significantly alter | do not significantly alter | do not significantly alter |  |  | 
CO[C@H]1C[C@H](CC[C@H](C)[C@H](O)[C@H](C)[C@H]2OC(=O)/C=C/C(C)=C/C[C@H](O)C[C@@H]3C=CC[C@@H](C[C@H](OC)[C@@H](C)[C@@H](O)C[C@@H](O)[C@H](C)[C@@H]([C@@H](C)[C@@H](O)[C@@H](C)CC[C@H]4C[C@H](OC)C[C@H](C)O4)OC(=O)/C=C/C(C)=C/C[C@H](O)C[C@@H]4C=CC[C@@H](C[C@H](OC)[C@@H](C)[C@@H](O)C[C@@H](O)[C@@H]2C)O4)O3)O[C@@H](C)C1 [swinholide A] |  |  |  | did not induce | ablation | did not significantly alter
CCOc1nc2cccc(C(=O)O)c2n1Cc1ccc(-c2ccccc2-c2nnn[nH]2)cc1 [candesartan] | trend toward increasing; also recorded: do not significantly alter | do not significantly alter | do not significantly alter |  |  | 
